Experimental data from patent USRE30560E, “Oxazolidinedione derivatives of Vinca alkaloids” (Eli Lilly and Company, priority 1979, dated 1981).

Assays:
[1] = tested on: Gardner lymphosarcoma (GLS); assay: Percent inhibition of transplanted Gardner lymphosarcoma (GLS) in mice; type: in vivo; details: for oral activity: 2 (VLB) and 2-4.5 (vincristine) mg./kg.; for oral activity / inhibitory activity orally: oral; for inhibitory activity orally: 6-7 mg./kg. (3"-methyl) and 3-6 mg./kg. (3"-(β-chloroethyl))
Protocol: (§1) The following table--Table 1--gives the results of several experiments in which mice bearing transplanted tumors were treated successfully with a compound of this invention. In the table, column 1 gives the name of the compound; column 2, the transplanted tumor; column 3, the dose level or dose level range and the number of days the dosage was administered; column 4, the route of administration, and column 5, the percent inhibition of tumor growth or percent prolongation of survival time, e.g., B16 and P388. (ROS is an abbreviation for Ridgeway osteogenic sarcoma; GLS for Gardner lymphosarcoma; P1534(J) and P388 are leukemias; CA755 is an adenocarcinoma; and B16 is a melamoma).

leukemias = details: humans; cited from earlier work
transplanted tumors [2] = assay: Activity against transplanted tumors in mice (general statements); type: in vivo; details: for activity by the oral route: same tumors in experimental animals; for dose level showing comparable tumor inhibition or prolongation of life: parenteral, intraperitoneal route
Protocol: as §1

[3] = Toxicity on oral administration in tumor-bearing animals; type: in vivo, experimental animals; details: above 2 (VLB) and 2-4.5 (vincristine) mg./kg.
CA755 = assay: Percent inhibition of transplanted CA755 adenocarcinoma in mice; type: in vivo; details: for oral activity: 2 (VLB) and 2-4.5 (vincristine) mg./kg.; for oral activity / inhibitory activity orally: oral; for inhibitory activity orally: 6-7 mg./kg. (3"-methyl) and 3-6 mg./kg. (3"-(β-chloroethyl))
Protocol: as §1

[4] = tested on: Ridgeway osteogenic sarcoma (ROS); assay: Percent inhibition of transplanted Ridgeway osteogenic sarcoma (ROS) in mice; type: in vivo; details: for oral activity: 2 (VLB) and 2-4.5 (vincristine) mg./kg.; for oral activity / inhibitory activity orally: oral; for inhibitory activity orally: 6-7 mg./kg. (3"-methyl) and 3-6 mg./kg. (3"-(β-chloroethyl))
Protocol: as §1

transplanted tumors [5] = details: C-3 amides; cited from earlier work
P1534(J) = assay: Percent inhibition, mice bearing transplanted P1534(J) leukemia; type: in vivo
Protocol: as §1

B16 = assay: Percent prolongation of survival time, mice bearing transplanted B16 melanoma; type: in vivo
Protocol: as §1

[6] = humans; compared with vincristine; cited from earlier work

CC[C@]1(O)C[C@@H]2CN(CCc3c([nH]c4ccccc34)[C@@](C(=O)OC)(c3cc4c(cc3OC)N(C)[C@H]3[C@]5(OC(=O)N(C)C5=O)[C@H](OC(=O)NC)[C@]5(CC)C=CCN6CC[C@]43[C@@H]65)C2)C1 [4-desacetyl VLB 3"-methyl-3-spiro-5"-oxazolidine-2",4"-dione-4-(N-methyl)carbamate]
Percent Inhibition ([1]; 0.1-2.5 mg./kg. × 7-9 days, IP): 40-100%

CC[C@]1(O)C[C@H]2CN(CCc3c([nH]c4ccccc34)[C@@](C(=O)OC)(c3cc4c(cc3OC)N(C=O)[C@H]3[C@@](O)(C(=O)OC)[C@H](OC(C)=O)[C@]5(CC)C=CCN6CC[C@]43[C@@H]65)C2)C1 [vincristine, leurocristine]
activity in the treatment of leukemias (leukemias): most active and useful agent in the treatment of leukemias
activity by the oral route (transplanted tumors [2]): do not show this degree of oral activity
dose level showing comparable tumor inhibition or prolongation of life (transplanted tumors [2]): 0.2 to 0.25 mg/kg
toxicity at higher levels [3]: usually are toxic at higher levels
oral activity (CA755): only marginally active, if at all
oral activity [4]: only marginally active, if at all
oral activity [1]: only marginally active, if at all

CC[C@]1(O)C[C@@H]2CN(CCc3c([nH]c4ccccc34)[C@@](C(=O)OC)(c3cc4c(cc3OC)N(C)[C@H]3[C@@](O)(C(=O)NCCS)[C@H](O)[C@]5(CC)C=CCN6CC[C@]43[C@@H]65)C2)C1 [C-3 N-(β-mercaptoethyl)carboxamide of 4-desacetyl VLB]
anti-tumor activity in mice (transplanted tumors [5]): highly effective anti-tumor agent in mice

CC[C@]1(O)C[C@@H]2CN(CCc3c([nH]c4ccccc34)[C@@](C(=O)OC)(c3cc4c(cc3OC)N(C)[C@H]3[C@]5(OC(=O)N(CCCl)C5=O)[C@H](OC(C)=O)[C@]5(CC)C=CCN6CC[C@]43[C@@H]65)C2)C1 [VLB 3"-(β-chloroethyl)-3-spiro-5"-oxazolidine-2",4"-dione]
Percent Inhibition or Prolongation of Survival Time (P1534(J); 3.5 mg./kg. × 8 days, PO): 100%
Percent Inhibition or Prolongation of Survival Time (P1534(J); 0.4-0.6 mg./kg. × 10 days, IP): 61-86%
Percent Inhibition (CA755; 0.75-1.0 mg./kg. × 10 days, IP): 53%
Percent Inhibition (CA755; 3-5 mg./kg. × 9-10 days, PO): 59-92%
inhibitory activity orally (CA755): 100%
Percent Prolongation of Survival Time (B16; 0.4-0.6 mg./kg. × 10 days, IP): 25-178%
indefinite survivors (survived for 60 days till end of trial) (B16; 0.4-0.6 mg./kg. × 10 days, IP): 5
inhibitory activity orally [4]: 100%
Percent Inhibition ([1]; 0.65 mg./kg. × 10 days, IP): 47%
Percent Inhibition ([1]; 0.5-0.6 mg./kg. × 9-10 days, IP): 50-74%
Percent Inhibition ([1]; 3-4 mg./kg. × 9 days, PO): 92-100%
inhibitory activity orally [1]: 100%

CC[C@]1(O)C[C@@H]2CN(CCc3c([nH]c4ccccc34)[C@@](C(=O)OC)(c3cc4c(cc3OC)N(C)[C@H]3[C@]5(OC(=O)N(C)C5=O)[C@H](OC(C)=O)[C@]5(CC)C=CCN6CC[C@]43[C@@H]65)C2)C1 [VLB 3"-methyl-3-spiro-5"-oxazolidine-2",4"-dione]
Percent Inhibition or Prolongation of Survival Time (P1534(J); 3-4 mg./kg. × 8 days, PO): 100%
Percent Inhibition or Prolongation of Survival Time (P1534(J); .5-.6 mg./kg. × 10 days, IP): 100%
Percent Inhibition (CA755; 0.5-1.0 mg./kg. × 10 days, IP): 45-100%
inhibitory activity orally (CA755): 100%
Percent Prolongation of Survival Time (B16; 4.5 mg./kg. × 10 days, IP (so in the source)): 49-91%
indefinite survivors (survived for 60 days till end of trial) (B16; 0.5-0.6 mg./kg. × 10 days, IP): 3
Percent Inhibition ([4]; 5-7 mg./kg. × 10 days, PO): 38-59%
inhibitory activity orally [4]: 100%
Percent Inhibition ([1]; 0.6 mg./kg. × 7 days, IP): 100%
Percent Inhibition ([1]; 1.25 mg./kg. × 9 days, IP): 100%
Percent Inhibition ([1]; 3-4 mg./kg. × 10 days, PO): 100%
Percent Inhibition ([1]; 3-5 mg./kg. × 10 days, PO): 37-56%
inhibitory activity orally [1]: 100%

C=CCN1C(=O)O[C@]2(C1=O)[C@H](OC(C)=O)[C@]1(CC)C=CCN3CC[C@@]4(c5cc([C@@]6(C(=O)OC)C[C@H]7CN(CCc8c6[nH]c6ccccc86)C[C@](O)(CC)C7)c(OC)cc5N(C)[C@@H]24)[C@@H]31 [VLB 3"-allyl-3-spiro-5"-oxazolidine-2",4"-dione]
Percent Inhibition ([1]; 2.5 mg./kg. × 7 days, IP): 35%

CC[C@]1(O)C[C@@H]2CN(CCc3c([nH]c4ccccc34)[C@@](C(=O)OC)(c3cc4c(cc3OC)N(C)[C@H]3[C@@](O)(C(=O)OC)[C@H](OC(C)=O)[C@]5(CC)C=CCN6CC[C@]43[C@@H]65)C2)C1 [VLB, vincaleukoblastine, reference compound]
activity by the oral route (transplanted tumors [2]): do not show this degree of oral activity
dose level showing comparable tumor inhibition or prolongation of life (transplanted tumors [2]): 0.4 to 0.45 mg/kg
toxicity at higher levels [3]: usually are toxic at higher levels
oral activity (CA755): only marginally active, if at all
oral activity [4]: only marginally active, if at all
oral activity [1]: only marginally active, if at all

CC[C@]1(O)C[C@@H]2CN(CCc3c([nH]c4ccccc34)[C@@](C(=O)OC)(c3cc4c(cc3OC)N(C)[C@H]3[C@@](O)(C(N)=O)[C@H](O)[C@]5(CC)C=CCN6CC[C@]43[C@@H]65)C2)C1 [vindesine, 4-desacetyl VLB C-3 carboxamide]
activity in the treatment of leukemias (leukemias): active in certain leukemias
neurotoxicity [6]: less neurotoxicity than does vincristine

CC[C@]1(O)C[C@@H]2CN(CCc3c([nH]c4ccccc34)[C@@](C(=O)OC)(c3cc4c(cc3OC)N(C=O)[C@H]3[C@]5(OC(=O)N(C)C5=O)[C@H](OC(C)=O)[C@]5(CC)C=CCN6CC[C@]43[C@@H]65)C2)C1 [Vincristine 3"-methyl-3-spiro-5"-oxazolidine-2",4"-dione]
Percent Inhibition ([1]; 1.0 mg./kg. × 7 days, IP): 61%

CC[C@]1(O)C[C@@H]2CN(CCc3c([nH]c4ccccc34)[C@@](C(=O)OC)(c3cc4c(cc3OC)N(C)[C@H]3[C@]5(OC(=O)N(C)C5=O)[C@H](O)[C@]5(CC)C=CCN6CC[C@]43[C@@H]65)C2)C1 [4-desacetyl VLB 3"-methyl-3-spiro-5"-oxazolidone-2",4"-dione]
Percent Inhibition ([1]; 2.5 mg./kg. × 7 days, IP): 27%
